Measured values: patent US20170232013A1, “COMPOSITIONS AND METHODS FOR THE TREATMENT OF MUSCULOSKELETAL RELATED DISEASES AND DISORDERS USING METAL ION-CITRATE ANALOG COMPLEXES” (The Charlotte-Mecklenburg Hospital Authority d/b/a …, priority 2011, published 2017)

Columns and labels:
Hartley guinea pigs [1] = assay: High definition X-ray of front limbs of Hartley guinea pigs after eight months of CaPC; type: in vivo; conditions: 30 mg/kg intraperitoneal twice per week
Experimental: In this example, three month old Hartley guinea pigs were administered 30 mg/kg calcium phosphorcitrate (CaPC) or saline via intraperitoneal injection twice per week. Eight months later, the guinea pigs were sacrificed and examined with high definition X-ray. […] The bone mineral content of the front limb of a CaPC-treated Hartley guinea pig (left photo, the green arrow) was higher than the bone mineral content of a front limb of an untreated Hartley guinea pig (left photo, the green arrow). […] The diameter of the front limb was lager and the bone mineral content was higher in CaPC-treated Hartley guinea pigs that that in untreated Hartley guinea pigs.

[2] = tested on: meniscus derived from osteoarthritis patients; assay: Microarray gene expression in cultured minced meniscus; type: cell-based, human; conditions: 7 day treatment, Skeletal Development gene
Text: In this example, meniscus derived from osteoarthritis patients were minced into small pieces and cultured in the absence or presence of magnesium phosphcitrate (MgPC). After 7 day treatment, RNA was extracted and gene expression was investigated using microarray.

Hartley guinea pigs [3] = assay: Skyscan Micro-CT of distal femurs of Hartley guinea pigs; type: in vivo
Experimental: The distal femurs of the Hartley guinea pigs were also analyzed with Skyscan Micro-CT. The femur of untreated Hartley guinea pigs had less bone volume and larger marrow space than the femur of CaPC-treated Hartley guinea pigs. Micro-CT scan of the femur of Hartley guinea pigs. […] The area showing less trabecular bone and larger marrow space is indicated by a red arrow. In the right image of FIG. 3, the femur of a CaPC-treated Hartley guinea pig is shown.
Femurs, previously stored in 70% ethanol, were cut close to the distal femur condyle. The specimens were left to dry 48-hr before being scanned using Skyscan Micro-CT. A 3-D model was built in the ANT model building program and bisected with a plane down the lateral/midline. Using the model building program, a separate dataset was built forming 30 cross sections on either side of the plane. With this dataset, measurements were taken with the 3D-Calc program. A rectangular region of interest was applied to all 60 sections. The region of interest was placed approximately 0.5 cm down from the growth plate in the central part of the trabeculae and extended downward.

Hartley guinea pigs [4] = assay: Subchondral bone mineral density by X-ray densitometry; type: in vivo
Experimental: The bone mineral density of subchondral bone of these same Hartley guinea pigs was evaluated using a X-ray densitometry.

Substance | formation of bone (Hartley guinea pigs [1]; vs saline) | bone mineral content of the front limb (Hartley guinea pigs [1]; vs untreated) | diameter of the front limb (Hartley guinea pigs [1]; vs untreated) | Differential Expression ACAN [2] | Differential Expression COL2A1 [2] | Differential Expression COL11A1 [2] | trabecular bone and marrow space of femur (Micro-CT image) (Hartley guinea pigs [3]; 30 mg/kg intraperitoneal twice per week, eight months, vs untreated) | Bone Volume (Hartley guinea pigs [3]; distal femur, region of interest over 60 sections, untreated 0.19 + 0.04) | Trabecular Number (Hartley guinea pigs [3]; distal femur, region of interest over 60 sections, untreated 0.43 + 0.08) | Tissue Volume (Hartley guinea pigs [3]; distal femur, region of interest over 60 sections, untreated 10.76 + 1.9) | Trabecular Thickness (Hartley guinea pigs [3]; distal femur, region of interest over 60 sections, untreated 32.90 + 3.6) | Subchondral bone mineral density (Hartley guinea pigs [4]; Pair one, untreated 0.143) [g/cm^2] | Subchondral bone mineral density (Hartley guinea pigs [4]; Pair three, untreated 0.150) [g/cm^2] | Subchondral bone mineral density (Hartley guinea pigs [4]; Pair two, untreated 0.146) [g/cm^2]
calcium phosphorcitrate [CaPC] | promoted the formation of bone | higher | larger | significantly induced | significantly induced | significantly induced | more trabecular bone and less marrow space | 0.49 + 0.09 | 1.07 + 0.15 | 10.76 + 1.9 | 42.00 + 4.9 | 0.157 | 0.181 | 0.161
magnesium phosphcitrate [MgPC] | – | – | – | 2.0 | 2.0 | 2.7 | – | – | – | – | – | – | – | –
